Experiments:
[1] = Microsomal stability assay, liver microsome half-life (monkey); type: in vitro ADME; conditions: pH 7.4; monkey liver microsomes 0.5 mg/mL + NADPH, 1 μM compound, 37° C; read-out: Liver microsome + NADPH T½ (min) Monkey
Description: (§1) Microsomal Stability Assay: Microsomal stability assay is a widely used in vitro model to characterize the metabolic conversion by phase I enzymes, such as cytochrome P450 (CYP) enzymes. Since metabolism is known to be highly variable in different species, microsomal stability assay is commonly run in multiple species. Metabolic stability of testing compound can be evaluated using human, rat, mouse, or other animal liver or intestine microsomes to predict intrinsic clearance.
(§2) The assay was carried out in 96-well microtiter plates at 37° C. Reaction mixtures (25 μL) contained a final concentration of 1 μM test compound, 0.5 mg/mL liver microsomes protein, and 1 mM NADPH and/or 1 mM UDPGA (with alamethicin) in 100 mM potassium phosphate, pH 7.4 buffer with 3 mM MgCl2. The incubation was done with N=1, but duplicate incubation at each time point can be prepared if necessary. At each of the time points (for example, 0, 15, 30, and 60 minutes), 150 μL of quench solution (100% acetonitrile with 0.1% formic acid) with internal standard was transferred to each well. Besides the zero minute controls, mixtures containing the same components except the NADPH can also be prepared as the negative control. Verapamil was included as a positive control to verify assay performance. Plates were sealed, vortexed, and centrifuged at 4° C. for 15 minutes at 4000 rpm. The supernatant is transferred to fresh plates for LC/MS/MS analysis.
(§3) Summarized conditions: [Compound]=1 μM, [LM]=0.5 mg/mL, [NADPH]=1 mM and/or [UDPGA]=1 mM, Buffer=100 mM Potassium Phosphate, pH 7.4 with 3 mM MgCl2, Time=0, 15, 30, and 60 min, and Temperature=37° C.
(§4) All samples were analyzed on LC/MS/MS using an AB Sciex API 4000 instrument, coupled to a Shimadzu LC-20AD LC Pump system. Analytical samples were separated using a Waters Atlantis T3 dC18 reverse phase HPLC column (20 mm×2.1 mm) at a flow rate of 0.5 mL/min. The mobile phase consisted of 0.1% formic acid in water (solvent A) and 0.1% formic acid in 100% acetonitrile (solvent B).
(§5) The extent of metabolism is calculated as the disappearance of the test compound, compared to the 0-min time incubation. Initial rates are calculated for the compound concentration and used to determine half-life (t1/2).

[2] = biological target: T1, androgen receptor (AR) (Homo sapiens, UniProt P10275); experiment: Androgen-induced PSA-luciferase assay, Luciferase Assay B (cells stably expressing ARR2PB or PSA-firefly luciferase reporter, 384-well); type: cell-based; conditions: Luciferase Assay B (Compounds A186-A219 and A221-A245); stable luciferase reporter cells, 1 h pretreatment, R1881 24 h, serum-free; read-out: PSA-Luc IC50 Range
T1 sequence (P10275 1-920 T878A): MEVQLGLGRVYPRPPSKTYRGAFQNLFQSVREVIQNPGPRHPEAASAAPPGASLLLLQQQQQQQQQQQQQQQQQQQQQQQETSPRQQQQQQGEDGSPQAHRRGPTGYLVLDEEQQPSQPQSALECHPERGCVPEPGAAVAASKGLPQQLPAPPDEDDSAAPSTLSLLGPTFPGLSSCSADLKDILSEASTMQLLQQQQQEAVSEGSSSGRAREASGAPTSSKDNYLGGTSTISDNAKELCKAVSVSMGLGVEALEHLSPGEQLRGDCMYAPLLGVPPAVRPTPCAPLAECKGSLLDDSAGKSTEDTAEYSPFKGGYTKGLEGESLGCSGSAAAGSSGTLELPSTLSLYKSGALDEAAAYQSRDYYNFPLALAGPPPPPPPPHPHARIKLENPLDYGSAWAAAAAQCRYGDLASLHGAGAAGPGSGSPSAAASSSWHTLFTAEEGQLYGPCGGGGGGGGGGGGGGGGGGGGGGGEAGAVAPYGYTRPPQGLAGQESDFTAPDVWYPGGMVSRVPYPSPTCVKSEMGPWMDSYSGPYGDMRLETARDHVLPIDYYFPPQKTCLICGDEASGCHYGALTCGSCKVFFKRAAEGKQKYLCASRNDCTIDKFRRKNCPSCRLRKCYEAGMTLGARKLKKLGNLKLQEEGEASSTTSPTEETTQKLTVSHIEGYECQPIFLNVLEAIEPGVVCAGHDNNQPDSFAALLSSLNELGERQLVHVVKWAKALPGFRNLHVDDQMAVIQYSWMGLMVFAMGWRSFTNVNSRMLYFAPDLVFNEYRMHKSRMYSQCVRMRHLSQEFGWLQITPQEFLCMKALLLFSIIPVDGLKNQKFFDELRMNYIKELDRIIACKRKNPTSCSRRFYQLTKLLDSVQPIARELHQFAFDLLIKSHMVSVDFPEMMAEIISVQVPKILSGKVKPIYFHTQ
Protocol: Luciferase Assay B: Cells stably expressing probasin promoter (ARR2PB) or human prostate-specific antigen (PSA)-firefly luciferase reporter were plated in poly-D-lysine-coated 384-well plates. 48 h after plating, cells were pretreated with vehicle or compounds for 1 h before adding R1881 under serum-free and phenol red-free conditions and then further incubated for 24 h. R1881 was added only for LNCaP cells. Firefly luciferase activities were determined by EnVision plate reader (Perkinemer) using the Steady-Glo Luciferase Reporter Assay System (Promega). Values were normalized to protein content. GraphPad Prism graphing software was used to calculate IC50 values. Luciferase Assay B was run for Compounds A186-A219 and A221-A245 in Table 2.
Statistical analyses were performed using GraphPad Prism (Version 6.01 for Windows; La Jolla, CA, USA). Comparisons between treatment and control groups were compared using Two-Way ANOVA with post-hoc Dunnett's and Tukey's tests. Differences were considered statistically significant at P values less than 0.05.

[3] = Microsomal stability assay, liver microsome half-life (human); type: in vitro ADME; conditions: pH 7.4; human liver microsomes 0.5 mg/mL + NADPH, 1 μM compound, 37° C; read-out: Liver microsome + NADPH T½ (min) Human
Description: as §1, §2, §3, §4, §5

[4] = Microsomal stability assay, liver microsome half-life (dog); type: in vitro ADME; conditions: pH 7.4; dog liver microsomes 0.5 mg/mL + NADPH, 1 μM compound, 37° C; read-out: Liver microsome + NADPH T½ (min) Dog
Description: as §1, §2, §3, §4, §5

[5] = Microsomal stability assay, liver microsome half-life (rat); type: in vitro ADME; conditions: pH 7.4; rat liver microsomes 0.5 mg/mL + NADPH, 1 μM compound, 37° C; read-out: Liver microsome + NADPH T½ (min) Rat
Description: as §1, §2, §3, §4, §5

[6] = Microsomal stability assay, liver microsome half-life (mouse); type: in vitro ADME; conditions: pH 7.4; mouse liver microsomes 0.5 mg/mL + NADPH, 1 μM compound, 37° C; read-out: Liver microsome + NADPH T½ (min) Mouse
Description: as §1, §2, §3, §4, §5

[7] = biological target: T2, androgen receptor (AR) (Homo sapiens, UniProt P10275, T878A); experiment: Androgen-induced PSA-luciferase assay, Luciferase Assay A (LNCaP transiently transfected with PSA (6.1 kb)-luciferase reporter); type: cell-based; conditions: LNCaP cells, 1 h pretreatment, R1881 (1 nM) 24 h, read-out: PSA-Luc IC50 Range
T2 construct: endogenous in cells; host or cells: LNCaP
T2 sequence (P10275 1-920 T878A): T1 sequence (P10275 1-920 T878A)
In short: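 LNCaP cells transfected 24 h with PSA (6.1 kb)-luciferase reporter, pretreated 1 h with compound, then stimulated 24 h with R1881 (1 nM). Firefly luminescence in lysates normalized to protein content; IC50 from activity relative to R1881-induced vehicle control.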

Row | half-life at 1 μM [1] [min] | IC50 [2] [nM] | half-life at 1 μM [3] [min] | half-life at 1 μM [4] [min] | half-life at 1 μM [5] [min] | half-life at 1 μM [6] [min] | IC50 [7] [nM] | SMILES
1 | > 120 | < 500 | > 120 | > 120 | > 120 | > 120 | – | CS(=O)(=O)Nc1cnc2cc(-c3ccc(N(CC(F)(F)F)c4cnc(OC5CC5)c(C#N)c4)cc3)ccc2n1 [Compound A203, N-(6-(4-((5-cyano-6-cyclopropoxypyridin-3-yl)(2,2,2-trifluoroethyl)amino)phenyl)quinoxalin-2-yl)methanesulfonamide]
2 | > 120 | – | > 120 | > 120 | > 120 | > 120 | 500 to 2000 | CC(C)(c1ccc(-c2cnn(C34CC(NS(C)(=O)=O)(C3)C4)c2)cc1)c1cc(Cl)c(OCCCl)c(C#N)c1 [Compound A75]
3 | 32 | – | > 120 | > 120 | > 120 | > 120 | < 500 | CC(C)(c1ccc(-c2cnc(N3CC(NS(C)(=O)=O)C3)cn2)cc1)c1cc(Cl)c(OCCCl)c(C#N)c1 [Compound A37]
4 | 100 | – | 101 | > 120 | > 120 | > 120 | 500 to 2000 | CS(=O)(=O)N[C@H]1C[C@H](n2cc(-c3ccc(N(CC(F)(F)F)c4cc(Cl)c(OCCCl)c(C#N)c4)cc3)cn2)C1 [Compound A84]
5 | > 120 | – | > 120 | > 120 | > 120 | > 120 | 500 to 2000 | CN(c1ccc(-c2ccc3nc(NS(C)(=O)=O)cnc3c2)cc1)c1cc(Cl)c(OC2CC2)c(C#N)c1 [Compound A164, N-(6-(4-((3-chloro-5-cyano-4-cyclopropoxyphenyl)(methyl)amino)phenyl)quinoxalin-2-yl)methanesulfonamide]
6 | > 120 | – | > 120 | > 120 | > 120 | > 120 | 500 to 2000 | CS(=O)(=O)Nc1nc2ccc(-c3ccc(Oc4cc(Cl)c(OCCCl)c(C#N)c4)cc3)cc2cc1F [Compound A157]
7 | > 120 | – | > 120 | > 120 | > 120 | > 120 | 500 to 2000 | CS(=O)(=O)Nc1cnc2cc(-c3ccc(Oc4cc(Cl)c(OCC(F)(F)F)c(C#N)c4)cc3)ccc2n1 [Compound A98]
8 | 117 | – | > 120 | > 120 | > 120 | > 120 | 500 to 2000 | CS(=O)(=O)NC1CN(c2cnc(-c3ccc(Oc4cc(Cl)c(OCCCl)c(C#N)c4)cc3)cn2)C1 [Compound A94]
9 | > 120 | – | > 120 | > 120 | > 120 | > 120 | 500 to 2000 | CS(=O)(=O)Nc1cnc2cc(-c3ccc(Oc4cc(Cl)c(OC5CCC5)c(C#N)c4)cc3)ccc2n1 [Compound A78]
10 | > 120 | – | > 120 | > 120 | > 120 | > 120 | 500 to 2000 | [2H]C([2H])([2H])N(c1ccc(-c2ccc3nc(NS(C)(=O)=O)cnc3c2)cc1)c1cc(Cl)c(OCCCl)c(C#N)c1 [Compound A145]
11 | > 120 | – | > 120 | > 120 | > 120 | > 120 | 500 to 2000 | CS(=O)(=O)Nc1cnc2cc(-c3ccc(Oc4cc(Cl)c(OC5CC5)c(C#N)c4)cc3)ccc2n1 [Compound A97, N-(6-(4-(3-chloro-5-cyano-4-cyclopropoxyphenoxy)phenyl)quinoxalin-2-yl) methanesulfonamide]
12 | > 120 | – | > 120 | > 120 | > 120 | > 120 | < 500 | CCN(c1ccc(-c2ccc3nc(NS(C)(=O)=O)cnc3c2)cc1)c1cc(Cl)c(OCCCl)c(C#N)c1 [Compound A82]
13 | > 120 | – | > 120 | > 120 | > 120 | > 120 | < 500 | COc1c(Cl)cc(N(c2ccc(-c3ccc4nc(NS(C)(=O)=O)cnc4c3)cc2)C2CC2)cc1C#N [Compound A163]
14 | 28 | – | 58 | > 120 | 103 | > 120 | 500 to 2000 | CC(C)(c1ccc(-c2ccc(N3CC(NS(C)(=O)=O)C3)nc2)cc1)c1cc(Cl)c(OCCCl)c(C#N)c1 [Compound A11]
15 | > 120 | – | > 120 | > 120 | > 120 | > 120 | 500 to 2000 | CS(=O)(=O)Nc1cnc2cc(-c3ccc(N(CC(F)(F)F)c4cc(Cl)c(OCCCl)c(C#N)c4)cc3)ccc2n1 [Compound A22, N-(6-(4-((3-chloro-4-(2-chloroethoxy)-5-cyanophenyl)(2,2,2-trifluoroethyl)amino)phenyl)quinoxalin-2-yl)methanesulfonamide]

From patent US20230373934A1, “ANDROGEN RECEPTOR MODULATORS AND METHODS FOR THEIR USE” (ESSA Pharma, Inc., priority 2022, published 2023)
